Test results taken from US20210009551A1, “COMPOUNDS AND METHODS FOR TREATING FIBROSIS OR CANCER” (THE REGENTS OF THE UNIVERSITY OF CALIFORNIA, priority 2016, published 2021).
pIC50: −log10 of the molar value.

Columns and labels:
human LOXL2 [1] = biological target: T1, human LOXL2 (Homo sapiens, UniProt Q9Y4K0); experiment: LOX activity assay (H2O2 release, fluorimetric); type: biochemical; conditions: 1 h incubation, read-out: IC50 of LOXL2 enzymatic activity toward a model substrate
T1 sequence (Q9Y4K0 26-774): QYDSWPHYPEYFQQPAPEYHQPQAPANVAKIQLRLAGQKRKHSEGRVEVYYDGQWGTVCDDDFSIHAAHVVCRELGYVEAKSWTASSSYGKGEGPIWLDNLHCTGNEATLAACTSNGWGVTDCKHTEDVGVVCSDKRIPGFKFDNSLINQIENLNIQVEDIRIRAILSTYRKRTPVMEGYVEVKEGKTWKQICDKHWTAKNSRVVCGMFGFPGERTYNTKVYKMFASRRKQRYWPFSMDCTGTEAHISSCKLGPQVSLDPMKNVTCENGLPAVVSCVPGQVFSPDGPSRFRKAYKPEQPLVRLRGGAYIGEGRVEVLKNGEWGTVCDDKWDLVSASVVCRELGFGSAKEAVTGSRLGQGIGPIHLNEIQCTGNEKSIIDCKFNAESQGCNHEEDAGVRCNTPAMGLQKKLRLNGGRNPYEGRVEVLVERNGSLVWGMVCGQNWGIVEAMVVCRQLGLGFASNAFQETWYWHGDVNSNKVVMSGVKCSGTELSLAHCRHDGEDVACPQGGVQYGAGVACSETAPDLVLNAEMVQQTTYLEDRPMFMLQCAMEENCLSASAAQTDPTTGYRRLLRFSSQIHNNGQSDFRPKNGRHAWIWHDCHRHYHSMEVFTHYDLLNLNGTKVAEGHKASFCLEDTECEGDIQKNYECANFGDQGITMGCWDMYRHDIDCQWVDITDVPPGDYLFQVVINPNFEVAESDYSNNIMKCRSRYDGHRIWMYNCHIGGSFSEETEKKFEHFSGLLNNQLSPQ
Protocol: (§1) LOX activity assay LOX activity of recombinant human LOXL2 or conditioned medium collected from cells expressing LOXL2 was measured using a Fluorimetric Lysyl Oxidase Activity Assay Kit (Abeam, Cambridge, Mass.) following a protocol provided by the manufacturer. Briefly, 50 μl of sample was mixed with an equal volume of assay reaction mixture containing LOX substrate, horseradish peroxidase (HRP) and HRP substrate in the presence and absence of testing inhibitors and D-penicillamine (DPA), a LOX inhibitor. The mixture was incubated for 30 min at 37° C. in darkness. The fluorescence increase was then measured with a fluorescence plate reader (BMG Lab Tech FLUOstar) at Ex/Em=540/590 nm. Sample buffer or medium alone without LOXL2 was used for determination of the background fluorescence.

human LOXL2 [2] = biological target: T1, human LOXL2; experiment: LOXL2-induced stabilization of snail 1 protein in NMuMG cells; type: cell-based; parameters: Flag (C); expressed in transfected cells; host or cells: NMuMG cells; conditions: 0.5 μM, 24 h
Protocol: (§2) Immunoblot. Pulverized tissue and cells were lysed in RIP A buffer (150 mM NaCl, 50 mM Tris, pH 8.0, 1% Triton X-100, 0.5% sodium deoxycholate, 0.1% SDS, supplemented with protease and phosphatase inhibitors) and analyzed by immunoblotting. Densitometry was quantified using NIH Imaged software.

[3] = tested on: C57BL/6 mice, intratracheal bleomycin; experiment: Bleomycin fibrosis model; type: in vivo; conditions: daily gavage 100 mg/kg from day 10 after bleomycin, day 21
Protocol: For histological assessment of lung collagen, frozen sections of the left lung were stained using Masson's Trichrome stain kit (American MasterTech, Lodi, Calif., USA).
Bleomycin fibrosis model. Eight-week old C57BL/6 mice were intratracheally instilled with saline or 1.9 units/kg of bleomycin (Sigma-Aldrich). Mice were implanted with osmotic pumps loaded with ellagic acid salt (24 mg/kg/day, Day 10-Day 17), fed with red raspberry diet (Day 0-Day 21), or gavaged with corilagin (100 mg/kg, Day 10-Day 21). Controls were treated with control pump, control diet, or vehicle in the same formulation. The lungs were lavaged and followed by OCT embedding for imaging or snap freezing in liquid nitrogen for protein extraction or hydroxyproline assay.
Collagen content Lung or aorta collagen content was evaluated using hydroxyproline assay. Briefly, whole left lung tissue or aorta was hydrolyzed in 1 ml 12N HCl at 110° C. for 24 h and the hydroxyproline was detected by incubating with Chloramine T and p-dimethylaminobenzaldehyde and the absorbance was measured at 550 nm. Each sample was run in triplicate. Collagen content in lung or aorta tissues was expressed as micrograms of collagen per lung or aorta and was converted from micrograms of hydroxyproline.

[4] = tested on: TGFβ1 signaling (p-smad3) in A549 cells; experiment: TGFβ1-induced p-smad generation in cells (immunoblot); type: cell-based; conditions: 1 μM
Protocol: as §2

[5] = biological target: T2, wild-type or mutant human LOXL2 (Homo sapiens, UniProt Q9Y4K0); experiment: LOX activity of conditioned media from NMuMG cells expressing wild-type or mutant LOXL2; type: cell-based; conditions: 1 μM, 6 h, K614N, K759R, all except the K731 mutant
T2 construct: Flag (C); expressed in transfected cells; host or cells: NMuMG cells, conditioned medium
T2 sequence (Q9Y4K0 26-774): T1 sequence (Q9Y4K0 26-774)
Protocol: as §1
Site-directed mutagenesis of LOXL2. Site-directed mutagenesis was performed to generate K614N, K731R, and K759R point mutations using Phusion Site-Directed Mutagenesis Kit (Thermo Scientific, Waltham, Mass.) according to manufacturer's instructions. A pcDNA3-hLOXL2-flag plasmid containing the cDNA fragment of wild-type human LOXL2 fused with a flag tag at the C-terminus, was used as the template DNA^18. Mutations were confirmed by DNA sequencing. […]

[6] = tested on: TGFβ1-induced epithelial-mesenchymal transition (EMT) in A549 adenocarcinoma cells; experiment: TGFβ1-induced EMT in A549 cells (image-based screen, immunoblot); type: cell-based
Protocol: High throughput screen and high content imaging analysis. A549 cell-based screening of inhibitors to TGFβ1-induced EMT from a bioactive small molecule library was performed in 384-well plate format and the images were captured and analyzed using GE IN Cell 2000 as described previously^16.
as §2

EGFR = experiment: EGF signaling through EGFR (immunoblot); type: cell-based; conditions: 1 μM, 6 h pre-treatment, A549 and MDA-MB-231 cells
Protocol: as §2

[7] = Bronchoalveolar lavage: immune cells and injury markers; type: in vivo; conditions: BALF, bleomycin or saline treated mice
Protocol: Bronchoalveolar lavage. After the trachea was exposed, a 20-G catheter was inserted into the trachea through a small incision. 1 ml cold PBS was instilled into the mouse lungs followed by gentle aspiration repeated for three times. All the bronchoalveolar lavage fluid (BALF) was centrifuged and cell pellet was re-suspended in erythrocyte (RBC) lysis buffer (Sigma, St. Louis) followed by re-centrifugation. Cell number was counted using hemocytometer. Cell types of BALF were determined by morphology following Diff-quick stain of cytospin slides. About 500 cells were counted for each sample in order to determine the cell types. Macrophages account for more than 80% of the cells in BALF and were collected by centrifugation. After centrifugation, the supernatant was collected to measure total protein content using the BCA assay (Pierce), while the cell pellet was lysed for immunoblotting or RNA isolation.

[8] = Plasma level of corilagin, LC/MS analysis; type: in vivo, mice; conditions: C57BL/6, mouse, 2 hrs after the last oral dose of 100 mg/kg, day 21, read-out: average circulating level
Protocol: Plasma level of corilagin—LC/MS analysis. Corilagin in C57BL/6 mice two hours following last oral administration at day 21 was analyzed. Blood samples (˜500 μL/sample) were collected via cardiac puncture. Samples were placed in tubes containing heparin sodium and stored on ice until centrifuged for plasma.

Compound: O=C(O[C@@H]1O[C@@H]2COC(=O)c3cc(O)c(O)c(O)c3-c3c(cc(O)c(O)c3O)C(=O)O[C@H]([C@H]1O)[C@@H]2O)c1cc(O)c(O)c(O)c1 [corilagin, Corilagin]
- pIC50 (human LOXL2 [1]): 7.30
- LOXL2-induced stabilization of snail 1 protein (human LOXL2 [2]): blocked
- bleomycin-induced total lung collagen, fibronectin, snail 1, and p-smad3 [3]: marked attenuation
- TGFβ1-induced p-smads after longer pre-incubation ([4]; pre-incubation 3 h or 6 h): completely suppressed
- effects on p-smad3 generation after knockdown of LOXL2 ([4]; A549 cells and primary lung fibroblasts, 6 h): completely blocked
- inhibition of LOX activity of wt and point mutant LOXL2 [5]: completely inhibited
- pIC50 ([6]; Homo sapiens, A549 cells stimulated with TGFβ1, 48 h): 7.30
- inhibitory effects on EMT after knockdown of LOXL2 ([6]; LOXL2 RNAi, A549 cells, 1 μM): completely abrogated
- EGF signaling through EGFR (EGFR): no effect
- immune cell numbers or markers of injury [7]: no effect
- concentration at 2 h [8]: 80 nM
